Assays:
[1] = biological target: human D3 dopamine receptor (Homo sapiens (Human), UniProt P35462); assay: Radioligand binding ([3H]-spiperone) to cloned human D3 receptor expressed in HEK-293 EBNA cells; conditions: membranes of transfected HEK-293 EBNA cells, 0.5 nM [3H]-spiperone, 1 h at RT
Protocol: HEK-293 EBNA cells were transiently transfected with expression plasmids encoding for the human D2 or D3 dopamine- or for the human 5-HT2A serotonin receptor, respectively. The cells were harvested 48 h post-transfection, washed three times with cold PBS and stored at −80° C. prior to use. […] After centrifugation at 48,000×g for 30 min at 4° C., the pellet was resuspended in cold 10 mM Tris-HCl buffer containing 0.1 mM EDTA (pH 7.4), homogenized, and centrifuged as above. […] The protein content of this homogenate was determined with the Bio-Rad (Bradford) Protein Assay (Biorad Laboratories GmbH, München, Germany) according to the instructions of the manufacturer using gamma globulin as the standard. This homogenate was stored at −80° C. in aliquots and thawed immediately prior to use.
(§1) The binding affinity (Ki) of the compounds was determined using radioligand binding. Membranes were incubated in a total volume of 200 μl with a fixed concentration of radioligand (final concentration approximately 0.7 nM [^3H]-spiperone for D2, 0.5 nM [^3H]-spiperone for D3, and 1.1 nM [^3H]-ketanserin for 5-HT2A) and ten concentrations of test compound in ranging between 10 μM-0.1 nM for 1 h at RT. At the end of the incubation, the reaction mixtures were filtered on to unifilter 96-well white microplates with bonded GF/C filters (Packard BioScience, Zürich, Switzerland; preincubated for 1 h in 0.1% polyethylenimine (PEI) in assay buffer) with a Filtermate 196 harvester (Packard BioScience) and washed 3 times with cold assay buffer. The nonspecific binding was determined with equally composed reaction mixtures in the presence of 10 μM unlabelled spiperone. Per well 45 μl of Microscint 40 (Perkin Elmer, Schwerzenbach, Switzerland) was added, plates for sealed, shaken for 20 min and counted for 3 min on a Topcount Microplate Scintillation Counter (Canberra Packard SA, Zürich, Switzerland) with quenching correction.
(§2) The CPM value for each duplicate of a concentration of competing compound was averaged (y1), then the % specific binding was calculated according to the equation (((y1−non-specific)/(total binding−non-specific))×100). Graphs were plotted with the % specific binding using XLfit, a curve fitting program that iteratively plots the data using Levenburg Marquardt algorithm. The single site competition analysis equation used was y=A+((B−A)/(1+((x/C)^D))), where y is the % specific binding, A is the minimum y, B is the maximum y, C is the IC50, x is the log10 of the concentration of the competing compound and D is the slope of the curve (the Hill Coefficient). From these curves the IC50 (inhibition concentration at which 50% specific binding of the radioligand was displaced) and Hill coefficient were determined. The affinity constant (Ki) was calculated using the Cheng-Prusoff equation Ki=(IC50/1+([L]/Kd), where [L] is the concentration of radioligand and Kd is the dissociation constant of the radioligand at the receptor as determined by the saturation isotherm.

[2] = biological target: human 5-HT2A serotonin receptor (Homo sapiens (Human), UniProt P28223); assay: Radioligand binding ([3H]-ketanserin) to cloned human 5-HT2A receptor expressed in HEK-293 EBNA cells; conditions: membranes of transfected HEK-293 EBNA cells, 1.1 nM [3H]-ketanserin, 1 h at RT
Protocol: The ability of the compounds to bind to the 5-HT2A, D3 and D2 receptors was determined using radioligand binding to cloned receptors selectively expressed in HEK-293 EBNA cells.
HEK-293 EBNA cells were transiently transfected with expression plasmids encoding for the human D2 or D3 dopamine- or for the human 5-HT2A serotonin receptor, respectively. The cells were harvested 48 h post-transfection, washed three times with cold PBS and stored at −80° C. prior to use. The pellet was suspended in cold 50 mM Tris-HCl buffer containing 10 mM EDTA (pH 7.4) and homogenized with a Polytron (Kinematica AG, Basel, Switzerland) for 20-30 sec at 12,000 rpm. After centrifugation at 48,000×g for 30 min at 4° C., the pellet was resuspended in cold 10 mM Tris-HCl buffer containing 0.1 mM EDTA (pH 7.4), homogenized, and centrifuged as above. This pellet was further resuspended in a smaller volume of ice cold 10 mM Tris-HCl buffer containing 0.1 mM EDTA (pH 7.4) and homogenized with a Polytron for 20-30 sec at 12,000 rpm. The protein content of this homogenate was determined with the Bio-Rad (Bradford) Protein Assay (Biorad Laboratories GmbH, München, Germany) according to the instructions of the manufacturer using gamma globulin as the standard. This homogenate was stored at −80° C. in aliquots and thawed immediately prior to use.
Aliquots of membrane preparations were thawed at RT, resuspended in assay buffer (D2, D3: 50 mM Tris-HCl, 120 mM NaCl, 5 mM MgCl2, 1 mM EDTA, 5 mM KCl, 1.5 mM CaCl2, pH=7.4; 5-HT2A: 50 mM Tris-HCl, 10 mM MgCl2, 1 mM EGTA, pH=7.4), homogenized with a Polytron for 20-30 sec at 12,000 rpm and adjusted to a final concentration of approximately 7.5 μg protein/well (D2, D3) and 15 μg protein/well (5-HT2A), respectively.
as §1, §2

Sequence of human D3 dopamine receptor (P35462 whole entry): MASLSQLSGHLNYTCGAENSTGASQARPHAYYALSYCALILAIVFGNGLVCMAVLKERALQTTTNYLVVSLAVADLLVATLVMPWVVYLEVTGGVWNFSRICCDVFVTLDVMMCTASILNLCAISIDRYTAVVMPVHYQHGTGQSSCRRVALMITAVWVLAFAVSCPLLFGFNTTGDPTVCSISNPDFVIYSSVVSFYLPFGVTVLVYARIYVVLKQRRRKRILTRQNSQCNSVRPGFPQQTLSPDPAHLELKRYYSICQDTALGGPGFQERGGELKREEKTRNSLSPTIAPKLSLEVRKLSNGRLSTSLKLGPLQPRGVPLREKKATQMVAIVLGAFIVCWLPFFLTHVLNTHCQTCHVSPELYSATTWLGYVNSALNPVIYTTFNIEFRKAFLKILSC

Row | Structure (SMILES) | Ki [1] [nM] | Ki [2] [nM]
1 | COC1(C)CCC(CC(=O)N[C@H]2CC[C@H](CCN3CCC(c4noc5cc(Cl)ccc45)CC3)CC2)CC1 (stereo partly drawn) [Example 42, N-trans(4-{2-[4-(6-Chloro-benzo[d]isoxazol-3-yl)-piperidin-1-yl]-ethyl}-cyclohexyl)-2-(4-methoxy-4-methyl-cyclohexyl)-acetamide] | 8 | 19
2 | O=C(C[C@H]1CCCO1)N[C@H]1CC[C@H](CCN2CCC(c3noc4cc(Cl)ccc34)CC2)CC1 [Example 53, N-trans-(4-{2-[4-(6-Chloro-benzo[d]isoxazol-3-yl)-piperidin-1-yl]-ethyl}-cyclohexyl)-2-(R)-tetrahydro-furan-2-yl-acetamide] | 14.4 | 6.19
3 | CN(C)c1ccc(C(=O)N[C@H]2CC[C@H](CCN3CCC(c4noc5cc(F)ccc45)CC3)CC2)cc1 [Example 6, 4-Dimethylamino-N-trans (4-{2-[4-(6-fluoro-benzo[d]isoxazol-3-yl)-piperidin-1-yl]-ethyl}-cyclohexyl)-benzamide] | 11.5 | 11.4
4 | COCCC(=O)N[C@H]1CC[C@H](CCN2CCC(c3noc4cc(Cl)ccc34)CC2)CC1 [Example 32, N-trans(4-{2-[4-(6-Chloro-benzo[d]isoxazol-3-yl)-piperidin-1-yl]-ethyl}-cyclohexyl)-3-methoxy-propionamide] | 8.5 | 16.5
5 | O=C(N[C@H]1CC[C@H](CCN2CCC(c3noc4cc(F)ccc34)CC2)CC1)C1COc2ccccc2O1 (stereo partly drawn) [Example 15, 2,3-Dihydro-benzo[1,4]dioxine-2-carboxylic acid trans (4-{2-[4-(6-fluoro-benzo[d]isoxazol-3-yl)-piperidin-1-yl]-ethyl}-cyclohexyl)-amide] | 12.7 | 2.57
6 | O=C(N[C@H]1CC[C@H](CCN2CCC(c3noc4cc(F)ccc34)CC2)CC1)c1ccc(N2CCOCC2)nc1 [Example 4A, N-Trans (4-{2-[4-(6-Fluoro-benzo[d]isoxazol-3-yl)-piperidin-1-yl]-ethyl}-cyclohexyl)-6-morpholin-4-yl-nicotinamide] | 7.95 | 2.7
7 | O=C(N[C@H]1CC[C@H](CCN2CCC(c3noc4cc(F)ccc34)CC2)CC1)c1ccc(N2CCS(=O)(=O)CC2)cc1 [Example 11, 4-(1,1-Dioxo-1,6-thiomorpholin-4-yl)-N-trans (4-{2-[4-(6-fluoro-benzo[d]isoxazol-3-yl)-piperidin-1-yl]-ethyl}-cyclohexyl)-benzamide] | 4.67 | 2.48
8 | COC(C)CC(=O)N[C@H]1CC[C@H](CCN2CCC(c3noc4cc(Cl)ccc34)CC2)CC1 (stereo partly drawn) [Example 43, N-trans(4-{2-[4-(6-Chloro-benzo[d]isoxazol-3-yl)-piperidin-1-yl]-ethyl}-cyclohexyl)-3-methoxy-butyramide] | 10 | 13
9 | COCCC(=O)N[C@H]1CC[C@H](CCN2CCC(c3noc4cc(Cl)c(F)cc34)CC2)CC1 [Example 60, N-trans-(4-{2-[4-(6-Chloro-5-fluoro-benzo[d]isoxazol-3-yl)-piperidin-1-yl]-ethyl}-cyclohexyl)-3-methoxy-propionamide] | 13.5 | 44
10 | O=C(N[C@H]1CC[C@H](CCN2CCC(c3noc4cc(F)ccc34)CC2)CC1)C1(O)CC1 [Example 18, 1-Hydroxy-cyclopropanecarboxylic acid trans (4-{2-[4-(6-fluoro-benzo[d]isoxazol-3-yl)-piperidin-1-yl]-ethyl}-cyclohexyl)-amide] | 5.92 | 1.44
11 | COc1cc(C(=O)N[C@H]2CC[C@H](CCN3CCC(c4noc5cc(F)ccc45)CC3)CC2)ccn1 [Example 13, N-trans (4-{2-[4-(6-Fluoro-benzo[d]isoxazol-3-yl)-piperidin-1-yl]-ethyl}-cyclohexyl)-2-methoxy-isonicotinamide] | 3.74 | 1.62

Source: patent US8829029B2, “Dual modulators of 5HT2A and D3 receptors” (Hoffmann-La Roche Inc., priority 2008, dated 2014)
